Reference: US20250346585A1 (Alexion Pharmaceuticals, Inc., priority 2022, published 2025)

biological target: Human complement C1s enzyme (Homo sapiens (Human), UniProt P09871); assay: Human C1s enzyme assay; assay type: biochemical; conditions: Human C1s enzyme assay of Example 3; read-out: IC50 (Stars)
Method in brief: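 Purified serum-derived human C1s (1.16 nM final) preincubated 5 min at room temperature with compound in 50 mM Tris, 1 M NaCl, pH 7.5. Z-L-Lys-SBzl thioester substrate and DTNB added (100 μM each, final); A405 read every 30 s for 30 min. IC50 from nonlinear regression of reaction rates against compound concentration.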

Sequence of Human complement C1s enzyme (P09871 438-688 limits assumed): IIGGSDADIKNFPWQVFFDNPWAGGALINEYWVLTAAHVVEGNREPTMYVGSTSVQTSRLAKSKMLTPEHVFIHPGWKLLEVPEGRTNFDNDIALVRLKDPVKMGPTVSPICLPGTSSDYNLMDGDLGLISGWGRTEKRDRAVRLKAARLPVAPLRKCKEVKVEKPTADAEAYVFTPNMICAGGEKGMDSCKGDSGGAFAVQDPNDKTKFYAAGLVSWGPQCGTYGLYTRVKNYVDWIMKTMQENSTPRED
Sequence of Human complement C1s enzyme (P09871 16-437 partner limits assumed): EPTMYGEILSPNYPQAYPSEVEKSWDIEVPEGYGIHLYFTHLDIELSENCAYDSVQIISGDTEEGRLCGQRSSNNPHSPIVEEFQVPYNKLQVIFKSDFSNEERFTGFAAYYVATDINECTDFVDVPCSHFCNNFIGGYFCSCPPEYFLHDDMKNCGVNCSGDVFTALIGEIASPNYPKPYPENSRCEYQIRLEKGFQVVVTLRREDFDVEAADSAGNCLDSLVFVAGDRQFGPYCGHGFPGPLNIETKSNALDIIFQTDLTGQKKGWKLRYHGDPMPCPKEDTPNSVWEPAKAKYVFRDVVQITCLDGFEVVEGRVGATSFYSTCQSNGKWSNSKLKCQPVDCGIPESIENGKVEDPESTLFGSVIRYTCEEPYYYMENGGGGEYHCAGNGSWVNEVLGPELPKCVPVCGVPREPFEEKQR

IC50, < 100 nM:
C[C@@H](NC(=O)[C@@H]1C[C@H](C2CCCCC2)CN1C(=O)CNC(=O)c1ccc2c(c1)-c1ccccc1C2(F)F)c1cc(C(=N)N)cs1 [Compound 98, (2S,4R)—N—((R)-1-(4-carbamimidoylthiophen-2-yl)ethyl)-4-cyclohexyl-1-((9,9-difluoro-9H-fluorene-3-carbonyl)glycyl)pyrrolidine-2-carboxamide]
C[C@@H](NC(=O)[C@@H]1C[C@](F)(CF)CN1C(=O)CNC(=O)c1ccc2c(c1)-c1ccccc1C2(C)C)c1cc(C(=N)N)cs1 [Compound 153, (2S,4R)—N—((R)-1-(4-carbamimidoylthiophen-2-yl)ethyl)-1-((9,9-dimethyl-9H-fluorene-3-carbonyl)glycyl)-4-fluoro-4-(fluoromethyl)pyrrolidine-2-carboxamide]
Cc1ccc(Oc2ccc(C(=O)NCC(=O)N3C[C@H](OC(F)F)C[C@H]3C(=O)N[C@H](C)c3cc(C(=N)N)cs3)cc2)cc1 [Compound 6, (2S,4R)—N—((R)-1-(4-carbamimidoylthiophen-2-yl)ethyl)-4-(difluoromethoxy)-1-((4-(p-tolyloxy)benzoyl)glycyl)pyrrolidine-2-carboxamide]

same assay, conditions: Human complement C1s enzyme 1.16 nM, substrate Z-L-Lys-SBzl 100 μM, assay of Example 3; read-out: IC50 (Stars)

IC50, < 100 nM:
COC[C@@]1(F)C[C@@H](C(=O)N[C@H](C)c2cc(C(=N)N)cs2)N(C(=O)CNC(=O)c2ccc3c(c2)oc2ccccc23)C1 [Compound 360, (2S,4R)—N—((R)-1-(4-carbamimidoylthiophen-2-yl)ethyl)-1-((dibenzo[b,d]furan-3-carbonyl)glycyl)-4-fluoro-4-(methoxymethyl)pyrrolidine-2-carboxamide]
C[C@@H](NC(=O)[C@@H]1C[C@@H](S(C)(=O)=O)CN1C(=O)CNC(=O)c1ccc2c(c1)S(=O)(=O)c1ccccc1-2)c1cc(C(=N)N)cs1 [Compound 381, (2S,4R)—N—((R)-1-(4-carbamimidoylthiophen-2-yl)ethyl)-1-((5,5-dioxidodibenzo[b,d]thiophene-3-carbonyl)glycyl)-4-(methylsulfonyl) pyrrolidine-2-carboxamide]
CO[C@@H]1C[C@@H](C(=O)N[C@H](C)c2cc(C(=N)N)cs2)N(C(=O)CNC(=O)c2ccc3oc4ccccc4c3c2)C1 [Compound 221, (2S,4R)—N—((R)-1-(4-carbamimidoylthiophen-2-yl)ethyl)-1-((dibenzo[b,d]furan-2-carbonyl)glycyl)-4-methoxypyrrolidine-2-carboxamide]
C[C@@H](NC(=O)[C@@H]1C[C@](F)(CF)CN1C(=O)CNC(=O)c1ccc2c(c1)S(=O)(=O)c1ccccc1-2)c1cc(C(=N)N)cs1 [Compound 375, (2S,4R)—N—((R)-1-(4-carbamimidoylthiophen-2-yl)ethyl)-1-((5,5-dioxidodibenzo[b,d]thiophene-3-carbonyl)glycyl)-4-fluoro-4-(fluoromethyl)pyrrolidine-2-carboxamide]
COC[C@@H]1C[C@@H](C(=O)N[C@H](C)c2cc(C(=N)N)cs2)N(C(=O)CNC(=O)c2ccc3oc4ccccc4c3c2)C1 (relative stereo) [Compound 295, (2S,4R*)—N—((R)-1-(4-carbamimidoylthiophen-2-yl)ethyl)-1-((dibenzo[b,d]furan-2-carbonyl)glycyl)-4-(methoxymethyl)pyrrolidine-2-carboxamide]
CO[C@@H]1C[C@@H](C(=O)N[C@H](CO)c2cc(C(=N)N)cs2)N(C(=O)CNC(=O)c2ccc3c(c2)-c2ccccc2C3(C)C)C1 [Compound 395, (2S,4R)—N—((R)-1-(4-carbamimidoylthiophen-2-yl)-2-hydroxyethyl)-1-((9,9-dimethyl-9H-fluorene-3-carbonyl)glycyl)-4-methoxypyrrolidine-2-carboxamide]
C[C@@H](NC(=O)[C@@H]1C[C@@H](OC(F)F)CN1C(=O)CNC(=O)c1ccc2oc3ccccc3c2c1)c1cc(C(=N)N)cs1 [Compound 205, (2S,4R)—N—((R)-1-(4-carbamimidoylthiophen-2-yl)ethyl)-1-((dibenzo[b,d]furan-2-carbonyl)glycyl)-4-(difluoromethoxy)pyrrolidine-2-carboxamide]
